Where two headings read alike, the source gives them in different places.
Experiments:
CD38^− HeLa cells = assay: Intracellular calcium assay (FURA 2-AM), CD38- HeLa; format: cell-based, human; details: 10 μM for 18 hours; for tapsigargine-induced release of calcium from ER stores [Ca^2+]i: 1 μM tapsigargine
Experimental: Adherent CD38^+ and CD38^− human HeLa cells on 20 mm-diameter coverslips were incubated in complete medium in the presence of […] P18 or P24 for […]. The cells were then washed, incubated with 6 μM Fura 2-acetoxymethyl ester (FURA 2-AM) in standard saline (135 mM NaCl, 5.4 mM KCl, 1.8 mM CaCl2, 1 mM MgCl2, 5 mM Hepes, 10 mM glucose, pH 7.4) for 45 minutes at 37° C. and then washed several times with saline. Calcium measurements were performed in a 200-μl chamber mounted on an inverted microscope, as described in detail in Zocchi E., et al. (1998) J. Biol. Chem. 273, 8017-8024. After determination of basal [Ca^2+]i levels, 1 μM tapsigargine was added to induce the release of calcium from tapsigargine-sensitive stores ([…]). The parameter values needed for calibration were obtained at the end of the experimental measurements, as described in Zocchi E., et al. (1998) J. Biol. Chem. 273, 8017-8024.
Basal cytosolic calcium and tapsigargine-induced release of calcium from […] (ER) stores (in bold in Table 4) were measured in CD38^+ and CD38^− HeLa cells loaded with FURA 2-AM and incubated in the absence (control) or in the presence of P18 or P24 at a concentration of 10 μM for 18 hours. The results obtained, expressed as [Ca^2+]I nanomolarity, are summarised in Table 4, showing mean results from 8 separate experiments (s.d.≦15% of the mean value).

Acid hydrolysis = format: physicochemical; details: yielding adenine and ADPR
[1] = test system: HeLa-CD38^+ (whole cells); assay: Hydrolysis by CD38+ HeLa whole cells
Experimental: (§1) ADP-ribosyl cyclases from lower and higher Metazoa were incubated in the presence of 0.1 mM cADPR and 1 mM adenine at pH 7.4 in 10 mM Tris-HCl (A, B and C) or in PBS-glucose (D) at 22° C. (A and B) or at 37° C. (C and D) for 4 hours. Aliquots of the various incubations were deproteinised with TCA (trichloroacetic acid) and subjected to HPLC (analytical phosphate). Chromatograms representative of each incubation are shown. A. A. polypoides; B. A. californica; C. Human CD38 (recombinant); D. Human HeLa cells transfected with sense and antisense human CD38 (dashed chromatogram).
(§2) In table 1, the absolute values of the peak-forming and -hydrolysing activities are compared with the cADPR-forming and -hydrolysing activities for each enzyme. The activities are expressed as nmol/min/mg.

CD38^− HeLa = assay: MTT reduction proliferation assay, CD38- HeLa; format: cell-based, human; details: 24 hours
Experimental: The effect of P18 and P24 on the proliferation of several cell lines was determined by the MTT reduction assay (Mosmann, T. (1983) J. Immunol. Methods 65, 55-63). […] After 24 hours, 10 μl of a 5 mg/ml solution of MTT were added to each well and the plates incubated for a further 2 hours. The supernatant was then removed from each well and the blue crystals produced by the reduction of the dye were dissolved in DMSO (200 μl/well). The optical absorbance at 570 nm was determined with a BioRad microplate reader.
In these experiments, cells were seeded onto 96 well plates (3×10^4 cells per well) and incubated in the presence of increasing concentrations of P18 or P24. After 24 hours, the percentage of viable cells was evaluated by spectrophotometric measurement of the concentration of reduced MTT (see Materials and Methods). The means of at least three separate experiments are shown (s.d.≦20% of the mean value). The production of P18 and P24 by human CD38 cyclase, with inhibitory effects on colony growth, together with cADPR, with stimulatory effect, may be at least partly responsible for the colony growth inhibition observed during long term culture of human HP cells on CD38^+ stroma. […]

Recombinant CD38 = assay: Hydrolysis by recombinant CD38
Experimental: as §1, §2

[2] = Storage stability of purified lyophilised peaks; details: stored at −20° C., several months (approx. 6)
Experimental: The cyclase purified from A. polypoides was used for the production of the dinucleotides for structural and functional studies. In a total volume of 0.4 ml of 10 mM Tris-HCl, pH 7.0, 0.05 mg of purified cyclase were incubated with 1 mM cADPR (or NAD^+), 5 mM adenine and 2 mM MgCl2 at room temperature. cADPR or NAD^+ was added to the reaction mixture every 6 hours, while every 24 hours fresh cyclase was added and an aliquot of the incubation was deproteinised with TCA (5% final concentration) and analysed by HPLC (analytical phosphate) to monitor dinucleotide production. After 3-5 days, the resulting incubation was extracted with TCA and 250 μl aliquots were injected into an HPLC column (preparative phosphate). The P18, P24 and P31 peaks were collected, lyophilised in a RotoVapor, re-dissolved in deionised water and injected into an HPLC column (preparative formate). […] The purified peaks produced by Axinella cyclase were used in in vitro experiments on the various cell types described hereinafter, for the enzymatic production of mononucleotides and nucleosides (see below), as internal and external HPLC standards to identify the dinucleotides in cell extracts, and for detecting the absorption spectra stored in the liquid chromatograph library as standards.

**Q.** Which results are given for Nc1ncnc2c1ncn2[C@@H]1O[C@H](COP(=O)(O)OP(=O)(O)OC[C@H]2O[C@@H](n3cnc4ncnc-4c3N)[C@H](O)[C@@H]2O)[C@@H](O)[C@H]1O [P18]?
**A.** ER stores-calcium, % of the control (CD38^− HeLa cells): 78%; basal [Ca^2+]i, % of the control (CD38^− HeLa cells): 52%; basal cytosolic free calcium [Ca^2+]i (CD38^− HeLa cells): 12 nM; tapsigargine-induced release of calcium from ER stores [Ca^2+]i (CD38^− HeLa cells): 366 nM; sensitivity to acid hydrolysis (Acid hydrolysis): sensitive to acid hydrolysis; hydrolysis activity ([1]; HeLa-CD38^+ whole cells, P18 and P24 to adenine and ADPR): 0.24^1 nmol/min/mg; IC50 (CD38^− HeLa): 150 µM; resistance to CD38 catalysed hydrolysis (Recombinant CD38; recombinant CD38): resistance; hydrolysis activity (Recombinant CD38; recombinant CD38, P18 and P24 to adenine and ADPR): 6.0^1 nmol/min/mg; degradation on storage [2]: no dinucleotide degradation was observed

**Q.** Which results are given for Nc1ncn([C@@H]2O[C@H](COP(=O)(O)OP(=O)(O)OC[C@H]3O[C@@H](n4cnc5c(N)ncnc54)[C@H](O)[C@@H]3O)[C@@H](O)[C@H]2O)c2ncnc1-2 [P24]?
**A.** ER stores-calcium, % of the control (CD38^− HeLa cells): 60%; basal [Ca^2+]i, % of the control (CD38^− HeLa cells): 191%; basal cytosolic free calcium [Ca^2+]i (CD38^− HeLa cells): 44 nM; tapsigargine-induced release of calcium from ER stores [Ca^2+]i (CD38^− HeLa cells): 290 nM; sensitivity to acid hydrolysis (Acid hydrolysis): sensitive to acid hydrolysis; hydrolysis activity [1]: 0.06^1 nmol/min/mg; IC50 (CD38^− HeLa): 9.8 µM; hydrolysis activity (Recombinant CD38): 0.25^1 nmol/min/mg; degradation on storage [2]: no dinucleotide degradation was observed

From patent US7868163B2, “Adenyl dinucleotides with antitumour activity and a method of preparing thereof” (Universita' Degli Studi Di Genova, priority 2005, dated 2011)
